According to EP4711366A1, “PYRIMIDO MACROHETEROCYCLIC COMPOUND AS WEE1-YES DUAL-TARGET INHIBITOR AND USE THEREOF” (Mindrank AI Ltd., priority 2023, dated 2024):
Converted amounts (≈) assume the structure as drawn. Blank lines part the entries; values can stand above or below the compound they belong to.

Key:
Wee1 kinase = Wee1 kinase (Homo sapiens, UniProt P30291); assay: WEE1 protein kinase inhibitory activity assay (ADP-GLO luminescence); assay type: biochemical; conditions: for IC50: Wee1 10 ng/well, ATP 10 µM, 3 h, 37 °C; for inhibition of the Weel target (in words): summary statement on the assay results
Chain of Wee1 kinase (P30291 whole entry): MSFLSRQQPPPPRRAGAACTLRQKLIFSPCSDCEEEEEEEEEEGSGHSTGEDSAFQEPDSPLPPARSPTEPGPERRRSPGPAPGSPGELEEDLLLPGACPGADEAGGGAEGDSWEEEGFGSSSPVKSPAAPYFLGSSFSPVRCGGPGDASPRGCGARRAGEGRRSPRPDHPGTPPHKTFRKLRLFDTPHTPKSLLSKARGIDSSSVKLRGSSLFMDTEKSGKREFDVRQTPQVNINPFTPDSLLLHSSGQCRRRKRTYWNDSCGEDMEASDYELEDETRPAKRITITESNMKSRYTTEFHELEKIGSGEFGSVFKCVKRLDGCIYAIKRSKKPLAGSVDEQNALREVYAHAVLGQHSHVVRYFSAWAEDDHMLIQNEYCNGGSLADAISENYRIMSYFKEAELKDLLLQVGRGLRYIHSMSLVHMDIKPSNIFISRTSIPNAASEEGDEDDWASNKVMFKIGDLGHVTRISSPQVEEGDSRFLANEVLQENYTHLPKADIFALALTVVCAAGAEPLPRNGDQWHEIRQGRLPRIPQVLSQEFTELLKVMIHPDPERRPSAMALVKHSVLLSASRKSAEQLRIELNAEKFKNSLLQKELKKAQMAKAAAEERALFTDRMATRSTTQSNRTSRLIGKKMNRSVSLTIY
Method: The influence of the compound MRANK-106 of the present disclosure on the kinase activity of Weel was assessed using an in vitro kinase reaction system.
Table 2-1. Information about reagents and consumables
① 1× kinase buffer: A 5× kinase buffer was diluted with ddH2O to make a 1× kinase buffer. Table 2-3. The reagent components added to the 1× kinase buffer
③ 5× enzyme working solution: The optimization of the enzyme concentration had been completed in previous work, and the concentration of the reagent used in the screening is shown in Table 2-4. A 5× enzyme working solution of the enzyme was formulated using the 1× kinase buffer.
④ Compound formulation: A 10 mM mother liquor was formulated using DMSO, aliquoted, and then stored at -20 °C. Immediately before use, the mother liquor was thawed, diluted with DMSO to 1 mM, serially diluted 4-fold to 10 concentration points, and then 40-fold diluted with the 1× kinase buffer to give a 2.5× working solution. Table 2-4. The experimental conditions for the kinase activity assay
After the above reagents were formulated and equilibrated to room temperature, 4 µL of the diluted solution of the compound to be tested and 2 µL of the formulated enzyme solution were added to reaction wells. After shaking and centrifugation, the plate was incubated at room temperature for 15 min, and 4 µL of the ATP solution was then added to start a kinase reaction. After 3 h of reaction at 37 °C, 10 µL of an ADP-GLO reagent was added. After thorough mixing, the mixture was left to react at room temperature for 40 min, and 20 µL of a detection reagent was then added. After 30 min of reaction at room temperature, the luminescence signals were detected using a SpectraMax L instrument. Two independent duplicate assays were performed. The inhibition rate of each well was calculated based on all activity wells and background signal wells, with an average calculated for duplicate wells. Meanwhile, the inhibition rate was plotted using the professional graphing and analysis software PRISM 9.0, and the IC50 was calculated.
The inhibition rates of the compounds to be tested against the kinase activity of Wee1 were calculated using the following formula: Inhibition rate% = (Lumvehicle−Lumcompound)/(Lumvehicle−Lumblank) × 100% [formula] • Lumcompound: the luminescence of the sample treatment groups • Lumvehicle: the luminescence of the solvent control group • Lumblank: the luminescence of the blank group

YES1 kinase = YES1 kinase (Homo sapiens, UniProt P07947); assay: YES1 protein kinase inhibitory activity assay (HTRF); assay type: biochemical; conditions: for IC50: HTRF, YES1 kinase, ATP 10 µM; for inhibition of the Yes target (in words): summary statement on the assay results
Chain of YES1 kinase (P07947 whole entry): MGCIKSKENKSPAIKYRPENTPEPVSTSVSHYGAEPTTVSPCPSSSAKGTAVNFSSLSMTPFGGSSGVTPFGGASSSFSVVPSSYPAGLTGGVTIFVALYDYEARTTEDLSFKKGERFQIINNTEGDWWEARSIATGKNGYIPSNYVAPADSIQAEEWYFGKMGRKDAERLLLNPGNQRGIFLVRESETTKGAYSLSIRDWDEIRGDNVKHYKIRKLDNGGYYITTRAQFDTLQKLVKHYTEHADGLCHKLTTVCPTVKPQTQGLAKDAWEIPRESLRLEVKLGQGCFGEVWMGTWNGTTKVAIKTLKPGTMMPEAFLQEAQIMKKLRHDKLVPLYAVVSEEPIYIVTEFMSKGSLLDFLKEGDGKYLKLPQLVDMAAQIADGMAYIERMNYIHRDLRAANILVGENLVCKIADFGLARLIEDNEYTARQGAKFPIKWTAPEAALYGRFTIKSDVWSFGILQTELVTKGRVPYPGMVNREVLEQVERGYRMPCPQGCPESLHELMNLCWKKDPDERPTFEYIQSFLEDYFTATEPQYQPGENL
Method: In this experiment, the capability of the compound MRANK-106 of the present disclosure to inhibit kinase activity was assessed by an HTRF method using a drug screening system based on the YES1 kinase.
Table 3-1. Information about reagents and consumables
The enzymatic activity conditions and HTRF system formulation are shown in Table 3-3; the experimental conditions for the kinase activity assay are shown in Table 3-4. Table 3-3. HTRF system formulation
Table 3-4. The experimental conditions for the kinase activity assay
The test compound MRANK-106 was dissolved in DMSO, and the solution was vortexed and shaken for thorough mixing. The solution was serially diluted 3-fold with DMSO, with the initial concentration being 503 nM.
① A 2× ATP/substrate solution and a 2× kinase solution were formulated using a kinase reaction buffer.
② 50 nL of the compound dilution was transferred to a 384 detection plate using Echo 655. After centrifugation, 2.5 µL of a 2× kinase solution was added to the 384 detection plate. The plate was centrifuged at 1000 rpm for 1 min and incubated at 25 °C for 10 min.
② 2.5 µL of the 2× substrate and ATP solution was added to the 384 detection plate, and the plate was centrifuged at 1000 rpm for 1 min and incubated at 25 °C for 60 min.
④ A 2× XL665 and antibody detection reagent was formulated using a detection buffer.
⑤ 5 µL of a kinase detection reagent was added to the detection plate, and the plate was incubated at 25 °C. The plate was centrifuged at 1000 rpm for 1 min and incubated at 25 °C for 1 h.
⑥ The fluorescence signals at 620 nm (Cryptate) and 665 nm (XL665) were read using a BMG high-throughput drug-screening multi-mode microplate reader.
With the reading of the negative control set as an inhibition rate of 0% and the reading of the positive control set as an inhibition rate of 100%, the inhibition rate of each test solution was calculated using the following formula: [formula] • Datapositive control: the average of the positive control well values • Datanegative control : the average of the negative control well values
The IC50 (half maximal inhibitory concentration) of the compound was obtained using the following nonlinear fitting formulas: Y = Bottom + (Top−Bottom)/(1+10^(∧)((LogIC50−X)*HillSlope)) [formula] • X: the log value of the compound concentration • Y: the inhibition rate (% inh) of the compound
The Z' factor calculation equation: Z′ = 1−3(SDmin+SDmax)/(AVEmax−AVEmin) [formula] where: • Min is the positive control Data value, and Max is the negative control DMSO Data value; • SD stands for standard deviation, and AVE stands for average.

A427 cells = assay: Tumor cell proliferation inhibitory activity assay (CCK-8); assay type: cell-based, Human; conditions: for IC50: Homo sapiens, A-427, 72 h compound incubation, CCK-8; for activity in inhibiting cancer cell proliferation compared with reference compound Debio 0123 or ZN-c3: comparison in words
Method: Human lung cancer A427 cells are cancer cells reported to be sensitive to wee1 inhibitors. In this assay, the anti-cancer effects of the compounds of the present disclosure were verified by assessing the activity of the test substances in inhibiting A427 cell proliferation.
A427 cells were cultured according to the cell culture instructions, and cells in the logarithmic growth phase were collected, counted, resuspended in a complete culture medium, and inoculated into a 96-well plate at a cell concentration of 100 µL/3000 cells/well. The cells were incubated in an incubator at 37 °C with 100% relative humidity and 5% CO2 for 24 h.
The compounds to be tested were dissolved in DMSO and diluted 4-fold with a culture medium from 10 µM to 10 concentration gradients.
The culture medium waste was pipetted off, and 100 µL of the formulated culture medium of the compound to be tested was added to each well. The cells were incubated in an incubator at 37 °C with 100% relative humidity and 5% CO2 for 72 h.
The plate was taken out, the CCK-8 reagent was added at 10 µL/well, and the plate was incubated in an incubator at 37 °C for 2-4 h.
The cell growth inhibition rates of the drugs were calculated using the following formula: Cell growth inhibition rate% = [(Ac−As)/(Ac−Ab)] × 100% [formula] • As: the OA of the samples (cells + CCK-8 + compounds to be tested) • Ac: the OA of the normal growth cell control (cells + CCK-8) • Ab: the OA of the blank control (culture medium + CCK-8)
IC50 curve fitting was performed using the software Graphpad Prism 6 and the calculation formula XY-analysis/Nonlinear regression(curve fit)/Dose response-Inhibition/log(inhibitor)vs. response-Variable slope(four parameters), and the IC50 values were calculated. Table 1. Data analysis and results for some representative compounds

[1] = Solid-state stability study of polymorphs; assay type: physicochemical; conditions: for Initial purity (%): HPLC purity before storage
[2] = Equilibrium solubility study of polymorphs in different vehicles; assay type: physicochemical; conditions: 37±2 °C, suspension ~10 mg/mL; for Equilibrium solubility: 24 h, 1440 min, in mg/mL (unit assumed)
Method: The equilibrium solubility of the crystal forms A, B, C, and D of compound (IE) was tested in water (H2O), fasted state simulated gastric fluid (FaSSGF), fasted state simulated intestinal fluid (FaSSIF), and fed state simulated intestinal fluid (FeSSIF). In the test, the solids were suspended in corresponding buffers to formulate suspensions (~10 mg/mL) and mixed at 37±2 °C. After 24 h, samples of the suspensions were taken. The supernatant was filtered, and the concentration was determined.

[3] = 25 °C/60% RH, 7 days (long-term)
[4] = 40 °C/75% RH, 7 days (accelerated)
[5] = 60 °C, 7 days (high-temperature, RH < 30%)
[6] = high-temperature and accelerated conditions for 7 days
[7] = long-term conditions for 7 days

Crystal form [1, 3]: Crystal form B
Purity (%) [1, 3]: 98.01%
Crystal form [1, 4]: Crystal form B
Purity (%) [1, 4]: 98.25%
Crystal form [1, 5]: Crystal form B
Purity (%) [1, 5]: 98.24%
Initial purity (%) [1]: 97.97%
solid-state stability (in words) [1, 6]: remained stable
solid-state stability (in words) [1, 7]: remained stable
Equilibrium solubility ([2]; FaSSGF): >10
Equilibrium solubility ([2]; FaSSIF): 1.23
Equilibrium solubility ([2]; FeSSIF): 2.07
Compound: Cc1cc(Nc2ncc3c(=O)n4n(c3n2)-c2cccc(n2)[C@](C)(O)CC/C=C\C4)ccc1OC1CCN(C)CC1 [Crystal form B of compound IE]

Crystal form [1, 3]: Crystal form D
Purity (%) [1, 3]: 97.82%
Crystal form [1, 4]: Crystal form D
Purity (%) [1, 4]: 97.87%
Crystal form [1, 5]: Crystal form D
Purity (%) [1, 5]: 97.74%
Initial purity (%) [1]: 97.79%
solid-state stability (in words) [1, 6]: remained stable
solid-state stability (in words) [1, 7]: remained stable
Equilibrium solubility ([2]; FaSSIF): 0.81
Equilibrium solubility ([2]; FeSSIF): 0.11
solubility thermodynamic at 24 h ([2]; fassgf): 8440 µg/mL (≈ 15.6 mM)
Compound: Cc1cc(Nc2ncc3c(=O)n4n(c3n2)-c2cccc(n2)[C@](C)(O)CC/C=C\C4)ccc1OC1CCN(C)CC1 [Crystal form D of compound IE]

Crystal form [1, 3]: Crystal form C
Purity (%) [1, 3]: 98.75%
Crystal form [1, 4]: Crystal form C
Purity (%) [1, 4]: 98.73%
Crystal form [1, 5]: Crystal form C
Purity (%) [1, 5]: 98.72%
Initial purity (%) [1]: 98.74%
solid-state stability (in words) [1, 6]: remained stable
solid-state stability (in words) [1, 7]: remained stable
Equilibrium solubility ([2]; FaSSGF): >10
Equilibrium solubility ([2]; FaSSIF): 0.710
Equilibrium solubility ([2]; FeSSIF): 1.299
Compound: Cc1cc(Nc2ncc3c(=O)n4n(c3n2)-c2cccc(n2)[C@](C)(O)CC/C=C\C4)ccc1OC1CCN(C)CC1 [Crystal form C of compound IE]

More lines, now with the values behind:

Compound: Cc1cc(Nc2ncc3c(=O)n4n(c3n2)-c2cccc(n2)C(C)(O)CCC=CC4)ccc1OC1CN(C)[C@H]1C (stereo partly drawn) [Compound 202, (Z)-2-((4-(((2S)-1,2-dimethylazetidin-3-yl)oxy)-3-methylphenyl)amino)-12-hydroxy-12-methyl-7,10,11,12-tetrahydro-5H-13,17-(azeno)pyrimido[4',5':3,4]pyrazolo[1,2-a][1,2]diazacyclotridecin-5-one]
IC50 (Wee1 kinase): 16.4 nM
inhibition of the Weel target (in words) (Wee1 kinase): strongly inhibited
IC50 (YES1 kinase): 18.8 nM
inhibition of the Yes target (in words) (YES1 kinase): strongly inhibited
IC50 (A427 cells): 78 nM
activity in inhibiting cancer cell proliferation compared with reference compound Debio 0123 or ZN-c3 (A427 cells): several times to several dozen times higher

Compound: CCOP1(=O)CCN(c2ccc(Nc3ncc4c(=O)n5n(c4n3)-c3cccc(n3)C(C)(O)CCC=CC5)cc2C)CC1 (racemic) [Compound 182, (Z)-2-((4-(4-ethoxy-4-oxido-1,4-azaphosphinan-1-yl)-3-methylphenyl)amino)-12-hydroxy-12-methyl-7,10,11,12-tetrahydro-5H-13,17-(azeno)pyrimido[4',5':3,4]pyrazolo[1,2-a][1,2]diazacyclotridecin-5-one]
IC50 (Wee1 kinase): 30.1 nM
inhibition of the Weel target (in words) (Wee1 kinase): strongly inhibited
IC50 (YES1 kinase): 19.9 nM
inhibition of the Yes target (in words) (YES1 kinase): strongly inhibited
IC50 (A427 cells): 160 nM

Compound: Cc1cc(Nc2ncc3c(=O)n4n(c3n2)-c2cccc(n2)C(C)(O)CCC=CC4)ccc1OC1(C)CCN(C)CC1 (stereo not drawn) [Compound 89, (Z)-2-((4-((1,4-dimethylpiperidin-4-yl)oxy)-3-methylphenyl)amino)-12-hydroxy-12-methyl-7,10,11,12-tetrahydro-5H-13,17-(azeno)pyrimido[4',5':3,4]pyrazolo[1,2-a][1,2]diazacyclotridecin-5-one]
IC50 (Wee1 kinase): 66.8 nM
inhibition of the Weel target (in words) (Wee1 kinase): strongly inhibited
IC50 (YES1 kinase): 18.5 nM
inhibition of the Yes target (in words) (YES1 kinase): strongly inhibited
IC50 (A427 cells): 219 nM

Compound: [2H]C1(Oc2ccc(Nc3ncc4c(=O)n5n(c4n3)-c3cccc(n3)[C@](C)(O)CCC=CC5)cc2C)CCN(C)CC1 (single isomer, unassigned) [Compound 172A]
IC50 (Wee1 kinase): 6.5 nM
inhibition of the Weel target (in words) (Wee1 kinase): strongly inhibited
IC50 (YES1 kinase): 5.8 nM
inhibition of the Yes target (in words) (YES1 kinase): strongly inhibited
IC50 (A427 cells): 15 nM
activity in inhibiting cancer cell proliferation compared with reference compound Debio 0123 or ZN-c3 (A427 cells): several times to several dozen times higher

Compound: Cc1cc(Nc2ncc3c(=O)n4n(c3n2)-c2cccc(n2)[C@](C)(O)CC/C=C\C4)ccc1OC1CCN(C)CC1 [Crystal form A of compound IE]
Crystal form [1, 3]: Crystal form A
Purity (%) [1, 3]: 98.01%
Crystal form [1, 4]: Crystal form E
Purity (%) [1, 4]: 98.11%
Crystal form [1, 5]: Crystal forms A+E
Purity (%) [1, 5]: 98.06%
Initial purity (%) [1]: 98.08%
solid-state stability (in words) [1, 7]: remained stable
Equilibrium solubility ([2]; FaSSGF): >10
Equilibrium solubility ([2]; FaSSIF): 1.73
Equilibrium solubility ([2]; FeSSIF): 0.27
